Entries after “also recorded” stand apart in the source; their conditions may differ.
Key:
[1] = target: T1, H-2Kb on DC2.4 (Mus musculus, UniProt P01901); assay: FITC-labeled Trp2 peptide binding to DC2.4; assay type: cell-based, murine; details: 50 μg/mL BzFβ 1 h, 1 h pulse 0-1000 nM peptide
T1 construct: DC2.4 are a C57Bl/6 lineage murine cell line and as such they express MHC class I H-2Kb and H-2Db; endogenous in cells; host or cells: DC2.4
Method: Cells were cultured as previously described and treated for various times as indicated in results and figure legends. Cells were centrifuged and washed using cold FACS buffer (DPBS with 5% FBS, 2 mM EDTA, 0.1% sodium azide). Cells were stained with N-terminal fluorophore-conjugated […] FITC labeled Trp2180-188 peptide ([…]) and N-terminal FITC labeled H-2Db peptide […] (Anaspec) cells were incubated with Fc block (bioLegend™; cat. no. 101320) for 10 min to 15 min to inhibit non-specific binding, followed by peptide for 1-4 h, before washing and analysis. After washing, the cells were subjected to flow cytometric analysis with the Attune NxT Flow Cytometer (Invitrogen™). Cells were gated based on live single-cell populations and positives were assessed using isotype controls and fluor-minus-one analysis when needed. Data were analyzed using the Attune NxT software or FlowJo versions 10.7 and 10.8.
While H-2Kb is the dominant haplotype, BzFβ was investigated to determine if the compound could assist peptide binding on H-2Kb and H-2Db. […]

[2] = test system: DC2.4 cells presenting SIINFEKL to B3Z CD8+ T cell hybridoma; assay: B3Z activation by SIINFEKL-pulsed DC2.4 (CPRG β-gal assay); assay type: cell-based, murine
Method: DC2.4 cells (2.5×10^4 cells/well) were seeded at 100 μL/well in 96 well tissue culture white sided/white bottom plate and incubated overnight to allow for cell adherence. 37° C. in an atmosphere containing 5% CO2 and 95% humidity. Following pre-treatment of the DC2.4 cells (1-24 h) with escalating doses of the test molecules, the cells were washed, pulsed with 0.5 nM of the MHC class I H-2Kb peptide, SIINFEKL, for 1 h, and then co-cultured with the CD8+ T cell hybridoma, B3Z.
The level of B3Z cell activation and the effects of the various test molecules on B3Z activation were quantified in cell lysates using the β-gal chromogenic substrate, CPRG. The media was removed and 100 μL of 250 μM CPRG reconstituted in the lysis buffer (1×DPBS, 0.2% v/v saponin, 20 mM magnesium chloride) was added directly to each well. Cells were maintained at 37° C. prior to measurement. The absorbance at 560 nm (700 nm for background) was intermittently monitored using a BioTek Synergy HTX multimode microplate reader (Winooski, VT) to detect β-gal activity. CPRG lysis buffer and B3Z cells only served as the negative controls. All treatments were performed in triplicate and all experiments were repeated a minimum of three times.
Activation of B3Z T cell hybridoma cells was assessed following their exposure to various MHC class I H-2K^b positive cell lines presenting the SIINFEKL peptide. B3Z are a CD8+ SIINFEKL peptide specific T-cell hybridoma expressing a beta-galactosidase (β-gal) reporter gene driven by NF-AT elements on the interleukin 2 (IL-2) promoter. […] Activation of B3Z leads to production of β-gal whose presence can be quantified using the optimized detection assay described by Jendresen et al. (Jendresen, et al., An improved CPRG colorimetric ligand-receptor signal transduction assay based on beta-galactosidase activity in mammalian BWZ-reporter cells. J Pharmacol Toxicol Methods. 2018 March-April; 90:67-75).
To stimulate β-gal production in the B3Z, the H-2Kb murine cell lines, DC2.4, B16F10, and E.G7-OVA, or freshly isolated murine splenocytes, were plated at a density of 2.5 or 5×10^4 cells/well (100 μL/well in 96 well plates) and cultured overnight at 37° C. in an atmosphere containing 5% CO2 and 95% humidity. The cells were washed with DPBS and then treated for 1-24 h with the indicated concentrations of BzFβ suspended in complete media. Vehicle controls were always included. […]
To detect activation of the B3Z cells, the media was removed and 100 μL of 250 µM CPRG reconstituted in the lysis buffer (1×DPBS, 0.2% v/v saponin, 20 mM magnesium chloride) was added directly to each well. […] The absorbance at 560 nm (700 nm for background) was intermittently monitored using a BioTek Synergy HTX multimode microplate reader (Winooski, VT) to detect β-gal activity. […]

T1 sequence (P01901 22-369): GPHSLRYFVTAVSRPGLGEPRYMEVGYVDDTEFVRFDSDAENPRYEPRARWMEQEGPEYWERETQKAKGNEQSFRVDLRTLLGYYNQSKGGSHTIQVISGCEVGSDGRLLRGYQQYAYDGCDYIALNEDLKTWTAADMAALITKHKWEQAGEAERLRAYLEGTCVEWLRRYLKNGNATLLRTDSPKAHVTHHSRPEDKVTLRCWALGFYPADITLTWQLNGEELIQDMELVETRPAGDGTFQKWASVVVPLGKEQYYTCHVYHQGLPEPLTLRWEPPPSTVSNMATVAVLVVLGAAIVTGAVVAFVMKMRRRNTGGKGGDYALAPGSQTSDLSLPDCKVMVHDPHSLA
T1 sequence (P01887 21-119 partner): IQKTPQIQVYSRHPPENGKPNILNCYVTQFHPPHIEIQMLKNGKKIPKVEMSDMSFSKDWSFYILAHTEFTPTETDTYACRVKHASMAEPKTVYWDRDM

## O=C(O)/C=C/c1ccc2occc2c1 [BzFβ, (2E)-3-(1-benzofuran-5-yl)prop-2-enoic acid]
[1]
  binding of FITC labeled Trp2 peptide to H-2Kb: enhance peptide binding on both haplotypes; also recorded: enhancement of the direct binding
[2]; co-treatment 1 h, 25 μg/mL BzFβ, 15 pM to 1 nM SIINFEKL, 19 h coculture
  B3Z response versus peptide pulsed DC2.4 alone: significantly greater
[2]; peptide pulsed DC2.4
  time to significantly enhanced B3Z activation: 5 min
